# Assay results as given in patent US20230066011A1, “PYRROLOPYRIMIDINE DERIVATIVE, AND PHARMACEUTICAL COMPOSITION FOR PREVENTING OR TREATING PROTEIN KINASE-RELATED DISEASE COMPRISING SAME AS ACTIVE INGREDIENT” (VORONOI CO., LTD., priority 2019, published 2023).
# Tests used:
# [1] = test system: SHP-77; assay: Inhibition of proliferation of SHP-77 cancer cells (Cell Titer-Glo); format: cell-based; conditions: Homo sapiens, SHP77, 72 hours
# Description: (§1) To evaluate an inhibitory effect on the proliferation of cancer cells, each of an MDA-MB-231 cell line (Korean Cell Line Bank #30026) and an MDA-MB-468 cell line as triple-negative breast cancer cell lines, and SHP-77 (ATCC #CRL-2195) as a small-cell lung cancer cell line was cultured in DMEM (HyClone #SH30243) or an RPMI medium (HyClone #SH3027.01) to analyze a cell growth rate. More specifically, a cell line was plated on a 96-well flat bottom plate (Corning #3903) at a density of 2,000 cells/100 μL per well, and then treated with 11 concentrations of the Example compound, a solution of which was diluted 3-fold so that a final concentration of the compound was 10.000000, 3.333333, 1.111111, 0.370370, 0.123457, 0.041152, 0.013717, 0.004572, 0.001524, 0.000508, and 0.000169 μM. After 72 hours, each of the culture media was treated with 100 μL of Cell Titer-Glo (Promega G7573), and then cultured at room temperature for 10 minutes. Then, a degree of luminescence was measured using a microplate reader. A GI50 value was calculated from the measured degree of luminescence using Prism (Version 8.2 GraphPad) software.
# [2] = test system: MDA-MB-231 cell line; assay: Inhibition of proliferation of MDA-MB-231 cancer cells (Cell Titer-Glo); format: cell-based; conditions: Homo sapiens, 72 hours
# Description: as §1
# [3] = biological target: T1, human GST-DYRK1A (Homo sapiens, UniProt Q13627); assay: GST-DYRK1A enzyme inhibition, ADP-Glo kinase assay; format: biochemical; conditions: ATP 10 μM, GST-DYRK1A full length, read-out: DYRK1 IC50
# T1 construct: purified human GST-DYRK1A (full length, Thermo Scientifics) enzyme; purchased Thermo Scientifics
# Method in brief: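 Full-length enzyme (10 ng) was incubated with 10 μM ATP and a specific substrate for 1 h at 25 °C in 40 mM Tris-HCl pH 7.4, 20 mM MgCl2, 0.5 mg/mL BSA, 50 μM DTT. Luminescence was read against a solvent control, and IC50 values were derived from 3 data sets.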
# [4] = biological target: T2, human GST-CLK1 (Homo sapiens, UniProt P49759); assay: GST-CLK1 enzyme inhibition, ADP-Glo kinase assay; format: biochemical; conditions: ATP 10 μM, GST-CLK1 129-end
# T2 construct: purified human GST-CLK1 (129-end, SignalChem) enzyme; purchased SignalChem
# T2 sequence (P49759 129-484 limits assumed): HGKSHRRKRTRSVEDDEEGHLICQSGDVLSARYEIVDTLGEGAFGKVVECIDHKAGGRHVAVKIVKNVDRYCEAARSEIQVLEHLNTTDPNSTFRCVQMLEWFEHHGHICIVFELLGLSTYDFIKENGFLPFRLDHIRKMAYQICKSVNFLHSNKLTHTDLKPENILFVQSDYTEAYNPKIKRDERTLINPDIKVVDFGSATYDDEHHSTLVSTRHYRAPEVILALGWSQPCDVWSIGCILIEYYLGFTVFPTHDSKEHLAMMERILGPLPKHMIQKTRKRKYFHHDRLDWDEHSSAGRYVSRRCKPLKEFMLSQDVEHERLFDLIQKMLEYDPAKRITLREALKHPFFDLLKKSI
# Method in brief: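 ADP-Glo luminescence read-out, relative to untreated solvent control, gave IC50 (nM) from triplicate data sets. Reactions ran an hour at 25° C with 3 ng GST-CLK1 (residues 129-end), 10 μM ATP and specific substrate in Tris-HCl pH 7.4 buffer with MgCl2, BSA and DTT.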
# [5] = test system: MDA-MB-468 cell line; assay: Inhibition of proliferation of MDA-MB-468 cancer cells (Cell Titer-Glo); format: cell-based; conditions: Homo sapiens, MDA-MB-468, 72 hours
# Description: as §1
# [6] = biological target: LRRK2 (G2019S) (Homo sapiens, UniProt Q5S007, G2019S); assay: LRRK2 G2019S enzyme inhibition, ADP-Glo kinase assay; format: biochemical; design: purchased SignalChem L10-12GG; conditions: ATP 25 μM
# Chain of LRRK2 (G2019S) (Q5S007 970-2527 G2019S limits assumed): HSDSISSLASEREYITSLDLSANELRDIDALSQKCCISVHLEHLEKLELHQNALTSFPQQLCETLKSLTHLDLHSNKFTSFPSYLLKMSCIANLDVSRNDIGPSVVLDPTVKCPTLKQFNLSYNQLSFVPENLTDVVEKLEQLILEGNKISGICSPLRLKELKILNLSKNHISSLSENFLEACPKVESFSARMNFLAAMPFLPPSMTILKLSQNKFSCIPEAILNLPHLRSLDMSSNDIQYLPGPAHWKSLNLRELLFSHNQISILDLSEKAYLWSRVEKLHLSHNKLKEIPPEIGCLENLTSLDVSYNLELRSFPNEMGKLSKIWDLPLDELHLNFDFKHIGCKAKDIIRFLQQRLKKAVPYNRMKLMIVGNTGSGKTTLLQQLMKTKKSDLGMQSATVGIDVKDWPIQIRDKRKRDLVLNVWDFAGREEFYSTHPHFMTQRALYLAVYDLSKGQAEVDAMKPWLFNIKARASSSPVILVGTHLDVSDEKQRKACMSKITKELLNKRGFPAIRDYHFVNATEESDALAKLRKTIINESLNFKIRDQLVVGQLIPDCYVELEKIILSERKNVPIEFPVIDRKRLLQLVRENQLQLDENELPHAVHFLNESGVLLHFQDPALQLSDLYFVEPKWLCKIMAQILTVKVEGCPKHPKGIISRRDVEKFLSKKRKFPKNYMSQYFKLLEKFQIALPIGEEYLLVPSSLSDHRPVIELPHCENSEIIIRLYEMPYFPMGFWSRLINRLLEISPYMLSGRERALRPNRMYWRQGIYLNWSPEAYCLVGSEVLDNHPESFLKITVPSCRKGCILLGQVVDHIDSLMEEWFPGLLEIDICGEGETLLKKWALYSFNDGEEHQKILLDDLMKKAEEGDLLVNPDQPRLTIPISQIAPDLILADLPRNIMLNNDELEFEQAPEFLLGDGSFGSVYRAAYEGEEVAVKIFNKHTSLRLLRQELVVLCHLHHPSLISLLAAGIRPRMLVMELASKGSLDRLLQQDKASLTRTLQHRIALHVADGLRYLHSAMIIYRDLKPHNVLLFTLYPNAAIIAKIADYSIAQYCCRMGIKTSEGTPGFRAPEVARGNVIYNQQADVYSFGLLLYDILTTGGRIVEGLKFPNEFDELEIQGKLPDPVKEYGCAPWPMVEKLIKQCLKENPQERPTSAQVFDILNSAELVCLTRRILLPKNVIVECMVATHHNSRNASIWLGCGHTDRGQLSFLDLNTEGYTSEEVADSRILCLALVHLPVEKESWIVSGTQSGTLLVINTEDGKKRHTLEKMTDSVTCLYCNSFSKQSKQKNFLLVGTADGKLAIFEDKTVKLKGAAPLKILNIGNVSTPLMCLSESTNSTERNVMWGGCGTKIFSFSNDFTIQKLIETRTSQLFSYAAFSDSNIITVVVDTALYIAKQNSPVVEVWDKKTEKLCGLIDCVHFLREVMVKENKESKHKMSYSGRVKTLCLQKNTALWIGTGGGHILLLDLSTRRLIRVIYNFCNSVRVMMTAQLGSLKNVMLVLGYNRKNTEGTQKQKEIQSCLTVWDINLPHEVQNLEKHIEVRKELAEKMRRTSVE
# Method in brief: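 IC50 derived from luminescent ADP-Glo readout against untreated solvent control, twelve final compound concentrations from 50 μM downward. Reaction: recombinant human LRRK2 G2019S enzyme, 25 μM ATP, substrate, pH 7.4 Tris buffer with MgCl2/BSA/DTT, 25° C. for 2 hours.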
# [7] = biological target: LRRK2 (Homo sapiens, UniProt Q5S007); assay: LRRK2 enzyme inhibition, ADP-Glo kinase assay; format: biochemical; design: purchased Invitrogen PR8604B; conditions: ATP 10 μM
# Chain of LRRK2 (Q5S007 970-2527 limits assumed): as the sequence (Q5S007 970-2527 G2019S limits assumed) above, with S1050G counted along it
# Method in brief: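 ADP-Glo luminescent read-out of ADP formed by purified human LRRK2 enzyme (25 ng), 10 μM ATP, 0.2 μg substrate, 25° C for 2 h, Tris-HCl pH 7.4 buffer with MgCl2, BSA, DTT. Inhibition versus untreated solvent control over twelve final concentrations (50 μM downward) gives IC50.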
Compound,GI50 [1],GI50 [2],IC50 [3],IC50 [4],GI50 [5],IC50 [6],IC50 [7]
"COc1cc(S(=O)(=O)N2CCOCC2)ccc1Nc1nc(N[C@@H]2CCOC2)c2c(C#N)c[nH]c2n1 [Example 74, (R)-2-((2-methoxy-4-(morpholinosulfonyl)phenyl)amino)-4-((tetrahydrofuran-3-yl)amino)-7H-pyrrolo[2,3-d]pyrimidine-5-carbonitrile]",101 to 300 nM,101 to 300 nM,301 to 1000 nM,301 to 1000 nM,,,
"COc1cc(S(=O)(=O)N2CCOCC2)ccc1Nc1nc(NCC2CCCC2)c2c(C(F)(F)F)c[nH]c2n1 [Example 194, N^4-(cyclopentylmethyl)-N^2-(2-methoxy-4-(morpholinosulfonyl)phenyl)-5-(trifluoromethyl)-7H-pyrrolo[2,3-d]pyrimidine-2,4-diamine]",301 to 1000 nM,301 to 1000 nM,301 to 1000 nM,301 to 1000 nM,,,
"COc1cc(S(=O)(=O)N2CCOCC2)ccc1Nc1nc(NCC2CCC2)c2c(C(F)(F)F)c[nH]c2n1 [Example 200, N^4-(cyclobutylmethyl)-N^2-(2-methoxy-4-(morpholinosulfonyl)phenyl)-5-(trifluoromethyl)-7H-pyrrolo[2,3-d]pyrimidine-2,4-diamine]",301 to 1000 nM,301 to 1000 nM,301 to 1000 nM,301 to 1000 nM,,,
"CCNc1nc(Nc2ccc(S(=O)(=O)N3CCOCC3)c3c2OCCO3)nc2[nH]cc(C(F)(F)F)c12 [Example 432, N^4-ethyl-N^2-(8-(morpholino-sulfonyl)-2,3-dihydro-benzo[b][1,4]dioxin-5-yl)-5-(trifluoromethyl)-7H-pyrrolo[2,3-d]pyrimidine-2,4-diamine]",,301 to 1000 nM,301 to 1000 nM,301 to 1000 nM,301 to 1000 nM,101 to 300 nM,< 100 nM

# Next, values leading:
GI50 [1],GI50 [2],IC50 [3],IC50 [4],GI50 [5],IC50 [6],IC50 [7],Compound
< 50 nM,< 50 nM,,,,,,"COc1cc(S(=O)(=O)N2CCOCC2)ccc1Nc1nc(NC(C)C)c2c(C#N)c[nH]c2n1 [Example 66, 4-(isopropylamino)-2-((2-methoxy-4-(morpholinosulfonyl)phenyl)amino)-7H-pyrrolo[2,3-d]pyrimidine-5-carbonitrile]"
101 to 300 nM,101 to 300 nM,301 to 1000 nM,301 to 1000 nM,,,,"CC[C@H](C)Nc1nc(Nc2ccc(S(=O)(=O)N3CCOCC3)cc2OC)nc2[nH]cc(C#N)c12 [Example 68, (S)-4-(sec-butylamino)-2-((2-methoxy-4-(morpholinosulfonyl)phenyl)amino)-7H-pyrrolo[2,3-d]pyrimidine-5-carbonitrile]"
< 50 nM,51 to 100 nM,301 to 1000 nM,301 to 1000 nM,,,,"COc1cc(S(=O)(=O)N2CCOCC2)ccc1Nc1nc(NCC2CCC2)c2c(C#N)c[nH]c2n1 [Example 79, 4-((cyclobutylmethyl)amino)-2-((2-methoxy-4-(morpholinosulfonyl)phenyl)amino)-7H-pyrrolo[2,3-d]pyrimidine-5-carbonitrile]"
< 50 nM,< 50 nM,301 to 1000 nM,301 to 1000 nM,,,,"CC[C@@H](C)Nc1nc(Nc2ccc(S(=O)(=O)N3CCC(N4CCOCC4)CC3)cc2OC)nc2[nH]cc(C#N)c12 [Example 86, (R)-4-(sec-butylamino)-2-((2-methoxy-4-((4-morpholinopiperidin-1-yl)sulfonyl)phenyl)amino)-7H-pyrrolo[2,3-d]pyrimidine-5-carbonitrile]"
301 to 1000 nM,301 to 1000 nM,101 to 300 nM,301 to 1000 nM,,,,"COc1cc(S(=O)(=O)N2CCOCC2)ccc1Nc1nc(NCC(C)C)c2c(C(F)(F)F)c[nH]c2n1 [Example 192, N^4-isobutyl-N^2-(2-methoxy-4-(morpholinosulfonyl)phenyl)-5-(trifluoromethyl)-7H-pyrrolo[2,3-d]pyrimidine-2,4-diamine]"
301 to 1000 nM,301 to 1000 nM,301 to 1000 nM,301 to 1000 nM,,,,"COc1cc(S(=O)(=O)N2CCC(N3CCOCC3)CC2)ccc1Nc1nc(NCC2CCCC2)c2c(C(F)(F)F)c[nH]c2n1 [Example 195, N^4-(cyclopentylmethyl)-N^2-(2-methoxy-4-((4-morpholinopiperidin-1-yl)sulfonyl)phenyl)-5-(trifluoromethyl)-7H-pyrrolo[2,3-d]pyrimidine-2,4-diamine]"
